Experimental data taken from PubChem BioAssay (NCI).
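Briefly, cells in 96-well plates were exposed to five compound concentrations for 48 h, and endpoints were estimated by linear interpolation. GI50 is the concentration that inhibits growth by half. TGI denotes the concentration required for complete inhibition of growth.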

Experiments:
Test in all cases: NCI anticancer screen, dose series, 48 h
MDA-MB-231 breast = test system: MDA-MB-231 breast
DU-145 prostate = test system: DU-145 prostate
SF-539 CNS = test system: SF-539 CNS
T-47D breast = test system: T-47D breast
HL-60(TB) leukemia = test system: HL-60(TB) leukemia
SN12C renal = test system: SN12C renal
TK-10 renal = test system: TK-10 renal
OVCAR-4 ovarian = test system: OVCAR-4 ovarian
RPMI-8226 leukemia = test system: RPMI-8226 leukemia
NCI-H522 lung = test system: NCI-H522 lung

Row | SMILES | TGI (MDA-MB-231 breast) [µM] | TGI (DU-145 prostate) [µM] | TGI (SF-539 CNS) [µM] | TGI (T-47D breast) [µM] | TGI (HL-60(TB) leukemia) [µM] | TGI (SN12C renal) [µM] | TGI (TK-10 renal) [µM] | TGI (OVCAR-4 ovarian) [µM] | TGI (RPMI-8226 leukemia) [µM] | GI50 (MDA-MB-231 breast) [µM] | GI50 (DU-145 prostate) [µM] | GI50 (SF-539 CNS) [µM] | GI50 (SN12C renal) [µM] | GI50 (TK-10 renal) [µM] | TGI (NCI-H522 lung) [µM] | GI50 (NCI-H522 lung) [µM] | GI50 (HL-60(TB) leukemia) [µM] | GI50 (OVCAR-4 ovarian) [µM]
1 | COc1ccc(C(=O)/C=C/c2ccc(OCCCCCCCCCCOc3ccc(/C=C/C(=O)c4ccc(OC)c(OC)c4)cc3)cc2)c(OC)c1 | > 100 | > 100 | > 100 | > 100 | > 100 | > 100 | > 100 | > 100 | > 100 | – | – | – | – | – | – | – | – | –
2 | CCc1ccc(OCc2ccccc2C(=O)Nc2ccc3nc(C)cc(N)c3c2)cc1 | 2.25 | 3.17 | 3.04 | – | – | 3.02 | 3.17 | – | – | 0.846 | 1.68 | 1.59 | 1.51 | 1.68 | – | – | – | –
3 | CN(C)CCN1C(=O)N(CCN(C)C)c2c3cc(O)ccc3nc3c([N+](=O)[O-])ccc1c23 | 25.4 | 27 | – | 39.2 | – | 23.6 | 33.6 | 28.4 | 42.4 | – | – | – | – | – | 33.3 | – | – | –
4 | Clc1sc(Cl)c2c1[C@H](Br)C[C@@H]2Cl | 51.3 | > 100 | 37.1 | > 100 | – | 85.3 | 87.7 | > 100 | > 100 | – | – | – | – | – | 33.5 | – | – | –
5 | CC1CCc2sc3[nH]c(=S)n(C)c(=O)c3c2C1 (stereo not drawn) | > 100 | > 100 | – | > 100 | 26.2 | > 100 | > 100 | > 100 | > 100 | – | – | – | – | – | 84.5 | – | – | –
6 | O=C(O)Cn1c[n+](NC(=O)Cc2ccccc2)cn1 | > 10 | > 10 | > 10 | > 10 | – | > 10 | > 10 | > 10 | > 10 | – | – | – | – | – | > 10 | – | – | –
7 | CC(C)NC(=O)OCc1c(COC(=O)NC(C)C)n(C)c2c1ccc1cc(Cl)c(Cl)cc12 | 25.3 | – | 27.1 | 18.8 | – | – | 19.4 | 54.8 | 39.5 | – | – | – | – | – | 13.1 | – | – | –
8 | CC(=O)Oc1ccc2c(c1)O/C(=C\c1ccc(O)cc1)C2=O | > 100 | > 100 | > 100 | > 100 | > 100 | > 100 | > 100 | > 100 | > 100 | – | – | – | – | – | > 100 | – | – | –
9 | O=C1c2c(Br)sc(Br)c2[C@H]2OC(=S)N[C@@H]12 | 25 | 26.9 | 31.2 | 44.2 | – | 8.7 | 35 | 13.3 | 40.3 | – | – | – | – | – | 3.4 | – | – | –
10 | Fc1ccc(OCc2ccc3nc(-c4ccccc4)c(Cl)nc3c2)cc1 | 47.3 | > 100 | 51.8 | > 100 | > 100 | > 100 | 90.1 | > 100 | > 100 | – | – | – | – | – | 24.4 | – | – | –
11 | CCOP(=O)(CC1OC(CO)C(O)C1O)OCC (stereo not drawn) | > 100 | > 100 | > 100 | > 100 | > 100 | > 100 | > 100 | > 100 | > 100 | – | – | – | – | – | > 100 | – | – | –
12 | O=C1CN(c2ccccc2)C(=O)C1C(=O)Nc1ccc(Cl)c(Cl)c1 (stereo not drawn) | – | – | 16.3 | – | 9.66 | 17.1 | 18.5 | 24.5 | – | – | – | – | – | – | 6.48 | – | – | –
13 | Cn1c(=O)c2[nH]c(Nc3cccc(Cl)c3)nc2n(C)c1=O | > 10 | > 10 | – | 8.72 | > 10 | > 10 | > 10 | > 10 | > 10 | – | – | – | – | – | – | – | – | –
14 | Cc1nn(C(=O)c2ccccc2O)c2c1C(c1ccc([N+](=O)[O-])cc1)SC(N)=N2 (stereo not drawn) | > 10 | > 10 | > 2.67 | > 10 | > 10 | > 10 | > 10 | > 10 | > 10 | – | – | – | – | – | > 10 | – | – | –
15 | CN1C2CCC1C(CO)C(=O)C2 (stereo not drawn) | > 100 | > 100 | 52.9 | 48.1 | 26.2 | – | 59.3 | > 100 | 54.1 | – | – | – | – | – | 34.2 | – | – | –
16 | O=C(O[C@@H](/C=C/c1ccccc1)P1(=O)N(Cc2ccccc2)[C@@H]2CCCC[C@H]2N1Cc1ccccc1)c1ccccc1 | 9.18 | – | > 100 | 3.41 | > 100 | 40.8 | > 100 | 6.33 | 6.24 | – | – | – | – | – | > 100 | – | – | –
17 | O=C1c2cc3c(cc2-c2c1c1cc(F)c(F)cc1c(=O)n2C[C@H](O)CO)OCO3 | 3.18 | > 100 | 0.14 | – | > 100 | 0.324 | 2.11 | > 100 | – | 0.378 | 0.0407 | 0.0288 | 0.033 | 0.335 | 0.48 | 0.0232 | 0.0426 | 0.423
18 | CC(=O)N=S(NC(=O)c1ccc(C)cc1)C(Cl)(Cl)Cl (stereo not drawn) | 68 | > 100 | > 100 | > 100 | 26.9 | > 100 | > 100 | 77.7 | > 100 | – | – | – | – | – | – | – | – | –
19 | COc1cccc(Nc2nc3c([nH]2)c(=O)n(C)c(=O)n3C)c1 | > 10 | > 10 | – | > 10 | > 10 | > 10 | > 10 | > 10 | > 10 | – | – | – | – | – | – | – | – | –
20 | Nc1cc2nc(-c3ccccc3)cn2cn1 | > 100 | > 100 | > 100 | > 100 | > 100 | > 100 | > 100 | > 100 | > 100 | – | – | – | – | – | – | – | – | –
21 | CO[C@H](C)[C@](O)(C(=O)OCC1=CCN2CC[C@@H](O)[C@H]12)C(C)C | > 100 | > 100 | > 100 | > 100 | – | > 100 | > 100 | > 100 | > 100 | – | – | – | – | – | > 100 | – | – | –
